Key:
[1] = test system: endogenous TLR2 and TLR7 in RAW-Blue™ Cells; assay: RAW-Blue Cells NF-κB/AP-1 SEAP reporter assay; format: cell-based, mouse; details: 24 hours, OD at 655 nm, FIG. 4
How it was run: (§1)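 HEK293 cells stably expressing the given TLR, or RAW 264.7-derived cells (50,000 or 100,000 cells/well respectively), carry an NF-κB/AP-1-inducible SEAP reporter. Conjugated TLR7-TLR2 agonists at final 10 μg/mL to 10 pg/ml, 24 h at 37° C. SEAP read colorimetrically as OD at 655 nm in detection medium.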

HEK293 cells = assay: Cell transfection with SEAP plasmid, HEK293; format: cell-based, human; details: in complex with pVitro14 LGFP SEAP plasmid, 48 hours, SEAP expression; FIG. 5A
Procedure: The TLR7-TLR2 molecules were tested for their ability as polyamine molecules to transport plasmid DNA (pDNA) into cells. The pVitro14 LGFP SEAP plasmid (InvivoGen) was complexed to TLR7-TLR2 polyamine molecules and to the control cationic lipid transfection agent, LyoVec™ (InvivoGen). The human HEK293 (ATCC, CRL-1573) and mouse B16-F1 melanoma (ATCC, CRL-6323) cell lines were seeded at a density of 50 000 cells/well and 20 000 cells/well respectively, in the absence or presence of different volumes of the plasmid encoding for the SEAP protein in complex with TLR7-TLR2 polyamine molecules for 48 hours at 37° C. and 10% CO2. Transfection efficiency was assessed by measuring SEAP reporter gene expression: 20 μl of supernatant was sampled and mixed with 180 μl of QUANTI-Blue™ Detection (InvivoGen). In the presence of alkaline phosphatase SEAP, the color of QUANTI-Blue™ changes from pink to purple/blue. The intensity of the blue hue reflects the activity of SEAP. The levels of SEAP secretion were determined quantitatively by reading the OD at 620-655 nm using a spectrophotometer, iMark™ Microplate Reader (BIO-RAD).

plasmid DNA (pDNA) = assay: Gel shift (mobility shift) assay of pDNA complexation; format: binding; details: pDNA:molecule ratio 3:24 (w:w), 0.8% agarose gel, compared to pDNA alone
How it was run: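 Complexes of pDNA with TLR7-TLR2 polyamine molecules run on 0.8% agarose in TAE at 135 V for 21 min, ethidium bromide stained and viewed under UV. Complexation scored as partial or complete retardation of pDNA migration versus pDNA alone, complexed pDNA appearing as a smear in wells.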

human TLR2 = target: T1, human TLR2 (Homo sapiens, UniProt O60603); assay: HEK-Blue hTLR2 NF-κB/AP-1 SEAP reporter assay; format: cell-based; details: HEK-Blue hTLR2 cells, 10 μg/mL to 10 pg/ml, 24 hours, OD at 655 nm, FIG. 3
T1 construct: host or cells: HEK293 (HEK-Blue™ hTLR2)
How it was run: as §1

T1 sequence (O60603 21-784): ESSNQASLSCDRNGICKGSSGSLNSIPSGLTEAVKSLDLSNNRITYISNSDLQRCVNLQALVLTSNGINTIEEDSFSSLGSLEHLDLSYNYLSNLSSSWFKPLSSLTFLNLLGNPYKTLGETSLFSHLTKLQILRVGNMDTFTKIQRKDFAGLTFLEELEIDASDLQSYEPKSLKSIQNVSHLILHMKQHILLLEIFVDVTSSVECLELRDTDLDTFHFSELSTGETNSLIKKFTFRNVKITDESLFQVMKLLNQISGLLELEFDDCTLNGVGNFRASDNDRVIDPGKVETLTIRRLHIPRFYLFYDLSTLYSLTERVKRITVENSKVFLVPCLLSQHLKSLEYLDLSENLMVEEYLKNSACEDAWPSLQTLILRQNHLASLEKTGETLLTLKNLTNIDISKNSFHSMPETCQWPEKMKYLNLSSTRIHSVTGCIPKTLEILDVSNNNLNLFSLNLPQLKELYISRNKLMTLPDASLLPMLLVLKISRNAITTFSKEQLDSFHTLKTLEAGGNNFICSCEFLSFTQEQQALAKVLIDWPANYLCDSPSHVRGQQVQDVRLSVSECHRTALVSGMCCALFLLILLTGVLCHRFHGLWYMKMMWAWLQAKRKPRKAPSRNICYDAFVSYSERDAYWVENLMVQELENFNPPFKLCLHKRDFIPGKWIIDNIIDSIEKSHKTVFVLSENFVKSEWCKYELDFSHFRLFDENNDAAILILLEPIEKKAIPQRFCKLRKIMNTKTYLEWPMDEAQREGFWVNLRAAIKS

Compound	ability to activate endogenous TLR2 and TLR7 in RAW-Blue Cells [1]	ability to transfect HEK293 cells (HEK293 cells)	ability to complex pDNA (retardation of pDNA migration in agarose gel) (plasmid DNA (pDNA))	ability to activate hTLR2 (human TLR2)
(6S,9S,12S,15S,18S,21R)-6,25-diamino-21-(4-((6-amino-2-(butylamino)-8-hydroxy-9H-purin-9-yl)methyl)phenylcarbamoyl)-12,15,18-tris(4-aminobutyl)-9-(hydroxyl methyl)-7,10,13,16,19-pentaoxo-4-thia-8,11,14,17,20-pentaazapentacosane-1,2-diyl dipalmitate [CL413]	activate endogenous TLR2 and TLR7	lack the ability to transfect cells	inability to migrate through an agarose gel	activate hTLR2
CCCCCCCCCCCCCCCC(=O)OCC(CSC[C@H](N)C(=O)N[C@@H](CCC(=O)NCCCNCCCCNCCCN)C(=O)Nc1ccc(Cn2c(O)nc3c(N)nc(NCCCC)nc32)cc1)OC(=O)CCCCCCCCCCCCCCC (stereo partly drawn) [CL527, (6R,9S)-6,25-diamino-9-(4-((6-amino-2-(butylamino)-8-hydroxy-9H-purin-9-yl)methyl)phenylcarbamoyl)-7,12-dioxo-4-thia-8,13,17,22-tetraazapentacosane-1,2-diyl dipalmitate]	activate endogenous TLR2 and TLR7	transfect HEK293 cells	inability to migrate through an agarose gel	activate hTLR2
CCCCCCCCCCCCCCCC(=O)N[C@@H](CSCC(COC(=O)CCCCCCCCCCCCCCC)OC(=O)CCCCCCCCCCCCCCC)C(=O)N[C@@H](CO)C(=O)N[C@@H](CCCCN)C(=O)N[C@@H](CCCCN)C(=O)N[C@@H](CCCCN)C(=O)N[C@@H](CCCCN)C(=O)Nc1ccc(Cn2c(O)nc3c(N)nc(NCCCC)nc32)cc1 (stereo partly drawn) [CL534, ((6R,9S,12S,15S,18S,21S)-25-amino-21-(4-((6-amino-2-(butylamino)-8-hydroxy-9H-purin-9-yl)methyl)phenylcarbamoyl)-12,15,18-tris(4-aminobutyl)-9-(hydroxylmethyl)-7,10,13,16,19-pentaoxo-6-palmitamido-4-thia-8,11,14,17,20-pentaazapentacosane-1,2-diyl dipalmitate]	activate endogenous TLR2 and TLR7	lack the ability to transfect cells	inability to migrate through an agarose gel	activate hTLR2
CCCCCCCCCCCCCCCC(=O)OCC(CSC[C@H](N)C(=O)N[C@@H](COC(=O)c1ccc(Cn2c(O)nc3c(N)nc(NCCCC)nc32)cc1)C(=O)NCCCNCCCCNCCCN)OC(=O)CCCCCCCCCCCCCCC (stereo partly drawn) [CL514, (6R,9S)-6,23-diamino-9-((4-((6-amino-2-(butylamino)-8-hydroxy-9H-purin-9-yl)methyl)benzoyloxy)methyl)-7,10-dioxo-4-thia-8,11,15,20-tetraazatricosane-1,2-diyl dipalmitate]	activate endogenous TLR2 and TLR7	transfect HEK293 cells	inability to migrate through an agarose gel	activate hTLR2
CCCCCCCCCCCCCCCC(=O)OCC(CSC[C@H](N)C(=O)NCCCNCCCCNCCCNC(=O)CNC(=O)c1ccc(Cn2c(O)nc3c(N)nc(NCCCC)nc32)cc1)OC(=O)CCCCCCCCCCCCCCC (stereo partly drawn) [CL553, (20R)-20-amino-1-(4-((6-amino-2-(butylamino)-8-hydroxy-9H-purin-9-yl)methyl)phenyl)-1,4,19-trioxo-22-thia-2,5,9,14,18-pentaazapentacosane-24,25-diyl dipalmitate]	activate endogenous TLR2 and TLR7	transfect HEK293 cells	inability to migrate through an agarose gel	activate hTLR2

Source: patent publication US9295732B2, “Conjugated TLR7 and/or TLR8 and TLR2 polycationic agonists” (CAYLA, priority 2013, dated 2016)
